Experimental data from publication PMC7393338 (Acta Pharmacologica Sinica, 2020).

Legend:
SARS-CoV-2 PLpro = SARS-CoV-2 PLpro (Severe acute respiratory syndrome coronavirus 2, UniProt P0DTD1); test: biochemical; conditions: read-out: PLpro Inhibition (%)
[1] = intratracheal administration versus other routes, rats

## O=c1cc(-c2ccccc2)oc2cc(O)c(O)c(O)c12 [Baicalein]
SARS-CoV-2 PLpro
  inhibition at 50 µM: < 50%
[1]
  target tissue (lung) distribution: significantly increase their target tissue distribution
